Results: patent US7833795B2, “Assessment of cardiovascular risk using isoprostane biomarkers and COX-2 selective inhibitors” (The Trustees of the University of Pennsylvania, priority 2004, dated 2010)

Columns and labels:
Male Fisher 344 rats [1] = assay: Urinary free plus esterified 8-iso-PGF2α by immunoassay; type: in vivo, rat
Description: (§1) Animals and treatment protocol: Male Fisher 344 rats (260-280 g) obtained from Charles River Laboratories (Raleigh, N.C.) were used in all experiments. The animals were housed three to a cage. Autoclaved hardwood bedding was used in solid-bottom polycarbonate cages with filter tops. Animal rooms were maintained at 20-25° C. with 35-70% relative humidity with alternating 12-hour light and dark cycles. The rats had free access to deionized, reverse-osmosis-treated water and received autoclaved NIH 31 rodent chow (Zeigler Bros., Gardners, Pa.) ad libitum. For all experiments, rats were fasted overnight and then administered intraperitoneal injections of carbon tetrachloride in canola oil. Control rats received an equal volume of canola oil. Fasting continued throughout the experiment. Rats were anesthetized with Nembutal (0.1 ml/100 g body weight) and 5 ml blood was removed from the dorsal aorta proximal to its bifurcation into the common iliac arteries.
(§2) Indomethacin pretreatment: The indomethacin regimen used has been previously shown to inhibit COX activity in rats by 90% (dose of 5 mg/kg s.c. 24 hours, 12 hours, and 2 hours prior to the injection of CCl4) (Jackson, 1989, J. Pharmacol. Exp. Ther. 250: 9-21). An additional booster dose was injected 8 hours after the last injection of CCl4 for the measurements performed 16 hours after treatment with CCl4.
(§3) Meclofenamic acid pretreatment: Meclofenamic acid was injected at a dose of 5 mg/kg i.p. 12 h and 2 h prior to the injection of CCl4.
(§4) Carbon tetrachloride (CCL4) treatment: Animals from each of the three dose groups (Control-canola oil, 120 mg/kg CCl4 i.p. and 1200 mg/kg CCl4 i.p.) were investigated at three time points (2, 7, and 16 hours after CCl4 injection). Indomethacin-pretreated rats were also investigated at the same three time points, and the meclofenamic acid-pretreated rats were investigated at one time point (7 hours). Each group consisted of five rats for each analysis, except the meclofenamic acid pretreatment group which consisted of six rats. Animal treatment, sample preparation, assessment of liver histology and serum enzyme activities are described elsewhere (Kadiiska et al., 2000, Free Radic. Biol. Med. 28: 838-845; Jackson, 1989, J. Pharmacol. Exp. Ther. 250: 9-21) and were carried out at NIEHS, Research Triangle Park, N.C.
(§5) Urine sample preparation: The day prior to treatment, both experimental and control animals were placed in stainless steel metabolic cages especially designed for urine collection. For Experimental Example 2, animals were placed in metabolic cages immediately after the last injection of indomethacin or meclofenamic acid. Urine was collected (in dark vials) from the animals during the following intervals: 2 to 7 hours and 7 to 16 hours after CCl4 or canola oil (controls) treatment. Urine samples from indomethacin-pretreated rats were collected from 2 to 7 hours and 7 to 16 hours after the injection of CCl4, whereas samples from meclofenamic-acid-pretreated rats were collected only from 2 to 7 hours after the injection. All urine samples were immediately frozen on dry ice and stored at −70° C.
Urinary 8-iso-PGF2α concentrations were measured by the competitive immunoassay procedure in which 8-iso-PGF2α conjugated to alkaline phosphatase competed with the test analyte for antibody specific for the isoprostane. The anti-8-iso-PGF2α antibody was captured by anti-Fc antibodies immobilized on a microtiter plate. The assay was developed by Assay Designs, Inc., Ann Arbor, Mich. and performed at OXIS Research, Portland, Oreg.
In an additional method not recited in Example 1, an immunoassay was used to measure the sum of free plus esterified 8-iso-PGF2α. The immunoassay used anti-8-iso-PGF2α antibody was developed by Assay Designs, Inc., Ann Arbor, Mich., and performed at Oxis Research, Portland, Oreg.

Male Fisher 344 rats [2] = assay: Urinary MDA by HPLC with spectrophotometry; type: in vivo, rat; conditions: for urinary MDA: meclofenamic acid pretreatment
Description: as §1, §2, §3, §4, §5
Urinary MDA was analyzed using high pressure liquid chromatography (HPLC). To 500 μl urine samples, 25 μl BHT and 750 μl 0.5% TBA solution were added, in this order. Samples were incubated at 60° C. for 60 minutes. After cooling, chloroform (750 μl) was added and mixed well. Following centrifugation, the aqueous layer was removed and used for HPLC analysis (column […]; mobile phase, 6:4(v/v) 0.04 M acetate buffer (pH 5.5)/MeOH; detection, 532 nm). The procedure was developed and performed by OXIS Research, Portland, Oreg.

Male Fisher 344 rats [3] = assay: Urinary free 8-iso-PGF2α by radioimmunoassay; type: in vivo, rat
Description: as §1, §3
as §4, with “N.C. […]” for “N.C.”
In Experimental Example 2, urine samples were also analyzed for free 8-iso-PGF2α, without any extraction, by radioimmunoassay (Basu, 1998, Prost. Leuk. Ess. Fatty Acids. 58: 319-325). […]

Male Fisher 344 rats [4] = assay: Plasma free 8-iso-PGF2α by GC/NICI-MS; type: in vivo, rat; conditions: meclofenamic acid 5 mg/kg i.p. pretreatment; only higher CCl4 dose, 7 h
Description: as §1, §2, §3, §4
(§6) Plasma sample preparation: Blood (5 ml) was drawn through single draw Vacutainer® needles (21 Gauge) into open Vacutainer® blood collection tubes containing heparin. The tubes were gently inverted 2-3 times for mixing and immediately placed on ice. Blood was centrifuged (2,000 rpm for 10 minutes at 4° C.) no more than 30 minutes after collection, and the plasma was collected, frozen on dry ice and stored at −70° C.
Two slightly different methods developed in two different laboratories were used to measure the effect of CCl4 on the plasma levels of free 8-iso-PGF2α, and the sum of free plus esterified 8-iso-PGF2α (also known as 8-epi-PGF2α and iPF2α-III and 15-F2t-IsoP). Free 8-iso-PGF2α concentrations in plasma were determined by gas chromatography/negative ion chemical ionization mass spectrometry (GC/NICI-MS) by the method of Morrow et al. (1999, Methods Enzymol. 300: 3-12). Briefly, [2H4] 8-iso-PGF2α internal standard was added to plasma and F2-isoprostanes were extracted with a C18 Sep-Pak® Cartridge (Waters Associates, Milford, Mass.). The extracted F2-isoprostanes were converted to pentafluorobenzyl ester and purified by TLC after which they were converted to a trimethylsilyl ether derivative and subsequently analyzed by GC-MS. The assay was developed and performed at Vanderbilt University, Nashville, Tenn.

Male Fisher 344 rats [5] = assay: Urinary 8,12-iso-iPF2α-VI by LC/MS/MS; type: in vivo, rat; conditions: for urinary 8,12-iso-iPF2α-VI, pretreated vs non-pretreated: indomethacin pretreatment
Description: as §1, §2, §3, §4, §5
Analysis of 8,12-iso-iPF2α-VI, which is, along with its epimer 5-epi-8,12-iso-iPF2α-VI, the most prevalent PGF-ring isoprostane in human urine, was accomplished by addition of a tetradeuterated analog, solid phase extraction and quantitation using liquid chromatography and tandem mass spectroscopy (LC/MS/MS) (Li et al., 1999, Proc. Natl. Acad. Sci. USA 96: 13381-13386). The measurements were performed at the University of Pennsylvania, Philadelphia, Pa.

Male Fisher 344 rats [6] = assay: Plasma free plus esterified 8-iso-PGF2α by GC/MS; type: in vivo, rat
Description: as §1, §2, §3, §4, §6
Measurement of the sum of free plus esterified 8-iso-PGF2α in plasma were performed using an improved GC/MS-based analysis for the quantitation of this isoprostane in plasma. A detailed protocol for this extraction and quantitation has been published (Parker et al., 2001, Mol. Biotechnol. 18: 105-118). Measurements of the sum of free plus esterified 8-iso-PGF2α in plasma were performed at NIEHS, Research Triangle Park, N.C.

Male Fisher 344 rats [7] = assay: Plasma MDA by GC/NICI-MS; type: in vivo, rat; conditions: indomethacin pretreatment; controls at 7 and 16 h, lower CCl4 dose at 2 and 16 h
Description: as §1, §2, §4, §6
Plasma MDA concentrations were also measured by using gas chromatography/negative ion chemical ionization mass spectroscopy (GC/NICI-MS) as described by Yeo et al. (Yeo et al., 1994, Anal. Biochem. 220: 391-396). The stable isotope internal standard [^2H2] MDA and an antioxidant (2,6-tert-butyl-4-methylphenol) were added to the plasma samples. The samples were then incubated at room temperature in 6.6 mol H2SO4 for 10 minutes to hydrolyze the aldehydes from the proteins. Plasma MDA was converted to a stable pentafluorophenyl hydrazine derivative which was quantified by using the GC-MS in the negative chemical ionization mode. The assay was performed at Children's Hospital Oakland Research Institute, Oakland, Calif.

Male Fisher 344 rats [8] = assay: Plasma MDA, TBA colorimetric assay with 3rd derivative spectroscopy; type: in vivo, rat; conditions: indomethacin pretreatment
Description: as §1, §4, §6
Two colorimetric-based assays, using third derivative spectroscopy, were also used to measure MDA in plasma. The TBA colorimetric assay is designed to measure free MDA and MDA-protein adducts (Schiff base), and therefore includes mild acid hydrolysis. The Bioxytech® LPO-586™ colorimetric assay is based upon the reaction of the chromogenic reagent N-methyl-2-phenylindole (NMPI) with MDA at 45° C. One molecule of free MDA combines with 2 molecules of the chromogenic agent to produce a stable chromophore with a maximal absorbance at 586 nm. In both assays, the concentration of MDA was determined with 3rd derivative spectroscopy. Both assays were developed by OXIS Research Inc., Portland, Oreg., and were performed at OXIS and at Loyola University Medical Center, Maywood, Ill.

COX = conditions: 5 mg/kg s.c. 24, 12 and 2 hours prior to CCl4; cited from earlier work
[9] = meclofenamic acid pretreatment, 7 h

SMILES | urinary free plus esterified 8-iso-PGF2α (immunoassay), pretreated vs non-pretreated (Male Fisher 344 rats [1]; meclofenamic acid pretreatment, high CCl4 dose, 7 h) | urinary MDA (Male Fisher 344 rats [2]; higher dose of CCl4, 7 h) | urinary MDA (Male Fisher 344 rats [2]; low dose of CCl4, 7 h) | basal urinary free 8-iso-PGF2α (radioimmunoassay) vs control group (Male Fisher 344 rats [3]; meclofenamic acid-treated rats, no CCl4) | urinary free 8-iso-PGF2α (radioimmunoassay) (Male Fisher 344 rats [3]; meclofenamic pretreatment, both doses of CCl4, 7 h) | plasma free 8-iso-PGF2α, pretreated vs non-pretreated (Male Fisher 344 rats [4]) | CCl4-induced urinary 8,12-iso-iPF2α-VI (Male Fisher 344 rats [5]; [9]) | plasma free plus esterified 8-iso-PGF2α, effect compared with that on free 8-iso-PGF2α (Male Fisher 344 rats [6]; [9]) | urinary free plus esterified 8-iso-PGF2α (immunoassay), pretreated vs non-pretreated (Male Fisher 344 rats [1]; indomethacin pretreatment, controls at 7 h, higher CCl4 dose at both time points) | plasma MDA (GC/MS), pretreated vs non-pretreated rats (Male Fisher 344 rats [7]) | urinary MDA, pretreated vs non-pretreated (Male Fisher 344 rats [2]; indomethacin pretreatment, controls and low-dose CCl4, both time points) | plasma MDA (third derivative spectroscopy), pretreated vs non-pretreated (Male Fisher 344 rats [8]) | urinary 8,12-iso-iPF2α-VI, pretreated vs non-pretreated (Male Fisher 344 rats [5]; controls, earlier time point) | urinary 8,12-iso-iPF2α-VI, pretreated vs non-pretreated (Male Fisher 344 rats [5]; higher dose CCl4) | urinary 8,12-iso-iPF2α-VI, pretreated vs non-pretreated (Male Fisher 344 rats [5]; low dose CCl4) | plasma free plus esterified 8-iso-PGF2α, pretreated vs non-pretreated (Male Fisher 344 rats [6]; indomethacin pretreatment, only higher CCl4 dose at 2 and 7 h) | inhibition of COX activity in rats (COX) [%]
Cc1ccc(Cl)c(Nc2ccccc2C(=O)O)c1Cl [meclofenamic acid] | significant decrease | significant inhibition | increased | lower basal levels | increased | significant decrease | increased | similar | – | – | – | – | – | – | – | – | –
COc1ccc2c(c1)c(CC(=O)O)c(C)n2C(=O)c1ccc(Cl)cc1 [indomethacin, 1-[p-chlorobenzoyl]-5-methoxy-2-methylindole-3-acetic acid] | – | – | – | – | – | – | – | – | Suppression | statistically significant decrease | increase in MDA excretion | similarly decreased | increased | markedly inhibited | no effect | statistically significant suppression | 90
